Source: ChEMBL document CHEMBL1157940, “Culicinin D, an antitumor peptaibol produced by the fungus Culicinomyces clavisporus, strain LL-12I252” (J Nat Prod, 2006)
≈ marks a conversion by molar mass, not a printed value. Calls of active or inactive are those of the source. The calls are words filed in the database; no cut-off is given here. Numbered stars: 1 amine (or outer) side, 2 acyl side, 3 side chain; on linkers, the order of the positions; unused ones are H or OH. Square brackets hold non-standard residues; d marks the D form. Peptide text beside a SMILES is read from it. * marks the point of attachment. X1 = CCC(=O)CC(O)CC(C)C[C@H](N[*:1])C(=O)[*:2]; X2 = CCCCCCC(C)C[C@@H](N[*:1])C(=O)[*:2]; Aib = CC(C)(N)C(=O)O; Butyryl = CCCC(=O)*; X3 = CC(CNCCO)N*; βAla = NCCC(=O)O

What was measured:
[1] = Effect on PI3K/AKT/mTOR pathway in PTEN deficient human MDA468 cells assessed as increase in p27Kip1 level at 0.01 to 0.1 ug/mL after 16 hrs by Western blot; format: cell-based; conditions: MDA-MB-468
[2] = Growth inhibition of PTEN deficient human MDA468 cells after 3 days by MTS assay; format: functional, cell-based; conditions: MDA-MB-468, 72 h
[3] = Effect on PI3K/AKT/mTOR pathway in PTEN deficient human MDA468 cells assessed as phosphorylated AKT level at 0.01 to 0.1 ug/mL after 16 hrs by Western blot; format: cell-based; conditions: MDA-MB-468
[4] = Effect on PI3K/AKT/mTOR pathway in PTEN deficient human MDA468 cells assessed as inhibition of cyclin D3 level at 0.01 to 0.1 ug/mL after 16 hrs by Western blot; format: cell-based; conditions: MDA-MB-468
[5] = Effect on PI3K/AKT/mTOR pathway in PTEN deficient human MDA468 cells assessed as inhibition of 4EBP1 phosphorylation after 16 hrs by Western blot; format: cell-based; conditions: MDA-MB-468
[6] = Effect on PI3K/AKT/mTOR pathway in PTEN deficient human MDA468 cells assessed as inhibition of S6 phosphorylation after 16 hrs by Western blot; format: cell-based; conditions: MDA-MB-468
[7] = system: MDA-MB-435; assay: Growth inhibition of human MDA435 overexpressing PTEN after 3 days by MTS assay; format: functional; conditions: MDA-MB-435, 72 h
[8] = Effect on PI3K/AKT/mTOR pathway in PTEN deficient human MDA468 cells assessed as inhibition of S6K phosphorylation after 16 hrs by Western blot; format: cell-based; conditions: MDA-MB-468

- IC50 [7]: 1.6 µg/mL (≈ 1.3 µM)
Structure (SMILES): CCCCCCC(C)C[C@@H](NC(=O)C(C)(C)NC(=O)C(C)(C)NC(=O)[C@H](CC(C)CC(O)CC(=O)CC)NC(=O)[C@@H]1CCCN1C(=O)CCC)C(=O)N[C@@H](CC(C)C)C(=O)NC(C)(C)C(=O)N[C@@H](CC(C)C)C(=O)NCCC(=O)NC(C)CNCCO (stereo partly drawn) [CULICININ D] (Butyryl-P[X1][Aib][Aib][X2]L[Aib]L[βAla]-X3)
- Activity [1]: Active
- IC50 [2]: < 0.007 µg/mL
- Activity [3]: inactive
- Activity [4]: Active
- Activity [5]: Dose-dependent effect
- Activity [6]: Dose-dependent effect
- Activity [8]: Dose-dependent effect
